Tests used:
[1] = target: T1, Bovine H1 histamine receptor (Bos taurus, UniProt P30546); test: histamine-mediated intracellular calcium accumulation in BHK cells transiently expressing bovine H1 histamine receptor; type: cell-based; settings: 10 nM histamine
T1 construct: expressed in transfected cells; host or cells: BHK cells, transient, lipofectamine, pcDNA3.3
Procedure: Bovine H1 histamine receptor was cloned into pcDNA3.3 expression vector and transiently expressed in BHK tissue culture cells using lipofectamine as per Carlson et al. Ten nM histamine was then added to the cells in the presence of various concentrations of rupatadine, tripelennamine, lexipafant, or WEB2086. Intracellular calcium accumulation was monitored in the transfected cells using a commercially available kit (Abcam, Cambridge, Mass.). IC50 values were then determined by identifying the concentration of the antagonist that reduced the maximal PAF-mediated intracellular calcium accumulation by 50%. […] Therefore, as showing in Examples 11 and 12, rupatadine is the only antihistamine that can also block the function of PAFR.

Bovine PAFR = target: T2, Bovine PAFR (Bos taurus, UniProt Q9TTY5); test: PAF-mediated intracellular calcium accumulation in BHK cells transiently expressing bovine PAFR; type: cell-based; settings: 10 nM PAF; for block of bovine PAFR (PAF-mediated intracellular calcium accumulation), FIG. 11: antagonist 1-100 nM, PAFR antagonists panel; for block of bovine PAFR (PAF-mediated intracellular calcium accumulation), FIG. 12: antihistamines 1-100 nM
T2 construct: expressed in transfected cells; host or cells: BHK cells, transient, lipofectamine, pcDNA3.3
Procedure: Bovine PAFR was cloned into pcDNA3.3 expression vector and transiently expressed in BHK tissue culture cells using lipofectamine as per Carlson et al., J Biol Chem, 271:23146053 (1996), herein incorporated by reference in its entirety. Ten nM PAF was then added to the cells in the presence of various concentrations of various antagonists: rupatadine, lexipafant (as in Kingsnorth, et al., BJS, 82:1414-20 (1995), herein incorporated in its entirety), and WEB2086 a PAF antagonist which has not been commercialized and/or used in humans to date (as in Casals-Stenzel et al., J of Pharmacolo Experimental Therapeutics, 241:974-81 (1987), herein incorporated in its entirety), as well as tripelennamine, a bovine-approved antihistamine at concentrations ranging between 1-100 nM. Intracellular calcium accumulation was monitored in the transfected cells using a commercially available kit (Abcam, Cambridge). IC50 values were then determined by identifying the concentration of the antagonist that reduced the maximal PAF-mediated intracellular calcium accumulation by 50%.
Various antihistamines were also tested. […] Intracellular calcium accumulation was monitored in the transfected cells using a commercially available kit (Abcam, Cambridge). IC50 values were then determined by identifying the concentration of the antagonist that reduced the maximal PAF-mediated intracellular calcium accumulation by 50%.

BRD in high-risk calves [2] = test: BRD prevention in high-risk calves, weekly injections (Example 13); type: in vivo; settings: weekly injections over five weeks; rupatadine 7 mg/kg subcutaneous, tripelennamine 1 mg/kg, WEB2086 10 mg/kg; five calves per group
Procedure: Twenty-five high-risk BRD calves were transported to a new barn and five each were assigned to different treatment groups: no treatment, weekly subcutaneous injections of 7 mg/kg of rupatadine, weekly injections of 1 mg/kg tripelennamine, weekly injections of 10 mg/kg WEB2086, and weekly injections of 1 mg/kg tripelennamine and 10 mg/kg WEB2086. The animals were observed over the next five weeks twice daily for BRD. Any animal who required antibiotics for treating the clinical signs of BRD was classified as having BRD. […] Four of the five (80%, n=4 of 5) animals receiving tripelennamine only developed BRD.

BRD in feedlot calves = test: BRD prevention at the feedlot, drug in the feed (Examples 5-7); type: in vivo
Procedure: An initial study was performed to confirm BRD prevention at the feedlot using an anti-inflammatory composition comprising rupatadine, the oral inhibitor of PAFR. A total of 18 calves were evaluated with the treatment arm receiving a dosage rate of 0.3 mg/kg. Calves were provided the drug in the feed during the first three weeks after entering the feedlot which is within the high risk 6-week period following transfer of the animal. Calves were purchased from a location in Joplin, Mo. having an overall incidence of BRD at >40% which is higher than the standard incidence of about 10% in cattle.
A further study was performed to confirm BRD prevention at the feedlot using the anti-inflammatory composition comprising rupatadine. The same methodology of Example 5 was employed with the modification of the number of calves and the dosage rate. The dosage rate was increased to 0.6 mg/kg. The number of calves were increased to 24 in total. The results are consistent to the first trial, including: 41.7% of treated calves (n=5 of 12) developed BRD whereas 100% of untreated calves (n=12 of 12) developed BRD.
A further study was performed to confirm BRD prevention at the feedlot using the anti-inflammatory composition comprising rupatadine as outlined in Example 5 with the modification of the number of calves (20 total) and the dosage rate. The dosage rate increased to 1.2 mg/kg.

PAFR [3] = target: T3, PAFR (Bos taurus, UniProt Q9TTY5); test: stress hormone- and commensal oral bacteria-mediated second messenger accumulation in calf blood cells; type: cell-based, cattle; settings: 500 nM inhibitor; cortisol 5 ng/mL, norepinephrine 100 pg/mL, 10^6 CFUs/mL commensal oral bacteria; six hours at 37° C.
T3 construct: second messenger accumulation in calf blood cells that have an increase in expression of PAFR; endogenous in cells; host or cells: bovine whole blood cells (ex vivo)
From the text: A PAFR inhibitor blocks the stress hormone- and commensal oral bacteria-mediated second messenger accumulation in calf blood cells that have an increase in expression of PAFR. Studies presented in Example 1 and FIG. 1 were repeated with the inclusion of the compositions comprising the anti-inflammatory drug rupatadine according to the invention. Blood was drawn from 10 animals that have an increase in PAFR expression (those in which an RT-PCR amplicon was visible after 10-15 cycles) and 10 animals with “normal” or no PAFR expression (those in which an RT-PCR amplicon was visible after 30-45 cycles).
Approximately 5 mL of whole blood was collected from the jugular or caudal vein of non-transported juvenile and adult cattle. Blood was placed in EDTA tubes, aliquoted, and cortisol (5 ng/mL) and norepinephrine (100 pg/mL) were added to some of the blood. The next day, blood samples were incubated with 0 or 10^6 CFUs/mL of commensal oral bacteria, 0 or 500 nM of the inhibitor, and a second messenger reagent for six hours at 37° C. with gentle rolling. After the six-hour incubation period, blood samples were analyzed for the production of second messengers. Data was standardized based on second messenger production in the presence of vehicle. […] Fifty ng of total RNA was then subjected to semi-quantitative RT-PCR to confirm the PAFR expression status of each animal.

[4] = pharmacotherapeutic study, blood levels after oral administration; type: in vivo; settings: daily oral doses of 30 mg/animal for 5 days; six calves; FIG. 9
Procedure: A pharmacotherapeutic study was completed to confirm the PAFRi survives the rumen and reaches therapeutic blood and lung concentrations following oral administration to feedlot calves. Six calves were purchased and given daily oral doses of 30 mg/animal of the drug rupatadine for 5 days. Blood was drawn five times on day one and twice per day thereafter to measure the blood levels of rupatadine.
In addition to the blood levels of the drug, the amount of the drug in the muscle tissue is also analyzed. Six recently weaned feedlot calves were orally dosed with […] of rupatadine once a day for five days, a dose that was determined based on allometric scaling from human data. Blood samples were taken at 0, 2, 4, 8, 12, 24, 48, 72, 96, and 120 hours after the first dose. Calves were euthanized at the 120-hour time point at which lungs samples were removed. Samples were submitted to the PhAST laboratory at Iowa State University, for LCMS-based quantitation of the drug and its primary metabolite that is pharmacologically active.

PAFR [5] = test: weekly blood PAFR level by qRT-PCR (Example 14); type: in vivo, calves
Procedure: Blood was extracted from all 25 calves was extracted weekly and the level of PAFR was assayed using qRT-PCR and the theoretical copies of transcript/200 ng of total RNA. […] However, it dropped the most in the weekly depot injection calves during the last three weeks of observations.

BRD in high-risk calves [6] = test: BRD prevention in high-risk calves, comparison of rupatadine treatment methods (Example 14); type: in vivo; settings: for calves that developed BRD: five-week observation, n=6
Procedure: In order to test various treatment methods of rupatadine, 25 high-risk calves were transported to a new farm. Seven calves were used as controls, six were given rupatadine as a single oral dose of 1 mg/kg, six were given rupatadine as a single subcutaneous injection of 7 mg/kg, six calves were given weekly subcutaneous injections of 7 mg/kg rupatadine. The animals were observed over the next five weeks twice daily for BRD. Any animal who required antibiotics for treating the clinical signs of BRD was classified as having BRD.

lung pathology = test: lung necropsy after five weeks of treatment (Example 13); type: in vivo; settings: after five weeks of weekly 7 mg/kg subcutaneous injections; BRD(+) calves usually >25%
From the text: After the five weeks, the rupatadine treated animals were euthanized and the lungs removed and necropsied. Three veterinarians then assessed the lungs for signs of disease, such as abscessation or consolidation. […] Lung pathology in BRD(+) calves is usually >25%, and of the rupatadine treated animals, there was only about 5-10% disease identified by the veterinarians.

T2 sequence (Q9TTY5 whole entry): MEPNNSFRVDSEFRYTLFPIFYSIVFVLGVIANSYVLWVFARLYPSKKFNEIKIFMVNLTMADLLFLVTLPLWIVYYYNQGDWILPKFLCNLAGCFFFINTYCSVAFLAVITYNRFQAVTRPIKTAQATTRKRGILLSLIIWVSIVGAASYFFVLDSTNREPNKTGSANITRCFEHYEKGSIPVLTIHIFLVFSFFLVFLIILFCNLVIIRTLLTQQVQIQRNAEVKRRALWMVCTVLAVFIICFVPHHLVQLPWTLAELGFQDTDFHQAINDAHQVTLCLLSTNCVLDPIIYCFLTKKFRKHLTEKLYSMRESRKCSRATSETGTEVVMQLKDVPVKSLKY
T1 sequence (P30546 whole entry): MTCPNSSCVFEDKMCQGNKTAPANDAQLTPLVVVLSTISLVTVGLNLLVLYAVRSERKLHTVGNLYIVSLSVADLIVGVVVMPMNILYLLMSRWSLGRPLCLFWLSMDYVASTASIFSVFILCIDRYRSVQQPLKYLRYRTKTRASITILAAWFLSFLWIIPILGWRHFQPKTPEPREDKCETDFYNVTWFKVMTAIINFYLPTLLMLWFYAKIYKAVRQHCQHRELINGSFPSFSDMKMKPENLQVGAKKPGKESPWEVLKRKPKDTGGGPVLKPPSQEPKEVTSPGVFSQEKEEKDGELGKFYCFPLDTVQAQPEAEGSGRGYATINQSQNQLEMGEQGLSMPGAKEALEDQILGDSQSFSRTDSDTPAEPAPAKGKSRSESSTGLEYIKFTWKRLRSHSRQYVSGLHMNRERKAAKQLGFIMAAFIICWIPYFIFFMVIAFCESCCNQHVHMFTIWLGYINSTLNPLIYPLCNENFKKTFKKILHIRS
T3 sequence (Q9TTY5 whole entry): as the sequence (Q9TTY5 whole entry) above

| Structure (SMILES) | block of H1 histamine receptor function, FIG. 13 [1] | block of bovine PAFR (PAF-mediated intracellular calcium accumulation), FIG. 11 (Bovine PAFR) | animals that developed BRD (BRD in high-risk calves [2]) [%] | block of bovine PAFR (PAF-mediated intracellular calcium accumulation), FIG. 12 (Bovine PAFR) | other results |
| --- | --- | --- | --- | --- | --- |
| Cc1nnc2n1-c1sc(CCC(=O)N3CCOCC3)cc1C(c1ccccc1Cl)=NC2 [WEB2086] | fail to black | blocked | 100 | – | – |
| CN(C)CCOC(c1ccccc1)c1ccccc1 [diphenhydramine] | – | – | – | do not block | – |
| OCCOCCN1CCN(C(c2ccccc2)c2ccc(Cl)cc2)CC1 (stereo not shown) [hydroxyazine, hydroxyzine] | – | – | – | do not block | – |
| CCOC(=O)[C@H](CC(C)C)N(C)S(=O)(=O)c1ccc(Cn2c(C)nc3cnccc32)cc1 [lexipafant] | fail to black | blocked | – | – | – |
| CC(CN1c2ccccc2Sc2ccccc21)N(C)C (stereo not shown) [promethazine] | – | – | – | do not block | – |
| COc1ccc(CN(CCN(C)C)c2ccccn2)cc1 [pyrilamine] | – | – | – | do not block | – |
| Cc1cncc(CN2CCC(=C3c4ccc(Cl)cc4CCc4cccnc43)CC2)c1 [rupatadine, 8-chloro-11-[1-[(5-methyl-3-pyridyl)methyl]-4-piperidyliden]-6,11-dihydro-5H-benzo[5,6]cyclohepta[1,2-b]pyridine] | block | blocked | 0 | blocks | treated calves that developed BRD (BRD in feedlot calves; 0.3 mg/kg in the feed during first three weeks after entering feedlot, 8 treated calves, within 5 weeks): 50%; reduction in BRD (BRD in feedlot calves; 0.3 mg/kg in the feed, versus calves that received no drug): 50%; second messenger accumulation in samples with increased PAFR expression (PAFR [3]): indistinct from normal or non-expressing samples; blood levels: time to reach therapeutic concentrations [4]: reaches therapeutic concentrations more rapidly than in humans; decrease in PAFR expression over five weeks (PAFR [5]; weekly depot injection 7 mg/kg versus control and other rupatadine treatments, FIG. 21): greatest decrease; PAFR expression at 35 days (PAFR [5]; weekly injections 7 mg/kg, 35 days): below ‘normal’ expression; calves that developed BRD (BRD in high-risk calves [6]; single oral dose of 1 mg/kg): 100%; calves that developed BRD (BRD in high-risk calves [6]; single subcutaneous long-acting injection of 7 mg/kg): 83.3%; calves that developed BRD (BRD in high-risk calves [6]; weekly subcutaneous injections of 7 mg/kg): 16.7%; day on which BRD developed (BRD in high-risk calves [6]; weekly subcutaneous injections of 7 mg/kg, the one calf that developed BRD): 31 days; lung disease identified by the veterinarians (lung pathology): 5-10% |
| CN(C)CCN(Cc1ccccc1)c1ccccn1 [tripelennamine] | block | not blocked | 80 | do not block | – |
